Experiments:
Format in all cases: in vivo
[1] = test system: Alopecurus myosuroides (ALOMY); assay: Pre-emergence biological efficacy, glasshouse pot test; details: 312 h
Method in brief: (§1)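 Glasshouse pot test: spray on soil one day after sowing, 1000 or 250 g/ha. Conditions 24/16 °C day/night, 14 h light, 65% humidity. Plant damage scored 0–100 at 13 days.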

[2] = test system: Amaranthus retoflexus (AMARE); assay: as above; details: Amaranthus retroflexus, 312 h
Method in brief: as §1

[3] = test system: Echinochloa crus-galli (ECHCG); assay: as above; details: 312 h
Method in brief: as §1

[4] = test system: Ipomea hederaceae (IPOHE); assay: as above; details: Ipomoea hederacea, 312 h
Method in brief: as §1

Setaria faberi (SETFA) [5] = assay: as above; details: 312 h
Method in brief: as §1

Solanum nigrum (SOLNI) [6] = assay: as above; details: 312 h
Method in brief: as §1

[7] = test system: Alopecurus myosuroides (ALOMY); assay: Post-emergence biological efficacy, glasshouse pot test; details: 312 h
Method in brief: (§2)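 Pot-grown weeds were sprayed 8 days after sowing with test compound in acetone/water (50:50) with 0.5% Tween 20 at 1000 or 250 g/ha. Glasshouse at 24/16° C day/night, 14 h light, 65% humidity. Damage scored 0-100 (100 = total damage) after 13 days.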

[8] = test system: Amaranthus retoflexus (AMARE); assay: as above; details: Amaranthus retroflexus, 312 h
Method in brief: as §2

[9] = test system: Echinochloa crus-galli (ECHCG); assay: as above; details: 312 h
Method in brief: as §2

[10] = test system: Ipomea hederaceae (IPOHE); assay: as above; details: Ipomoea hederacea, 312 h
Method in brief: as §2

Setaria faberi (SETFA) [11] = assay: as above; details: 312 h
Method in brief: as §2

Solanum nigrum (SOLNI) [12] = assay: as above; details: 312 h
Method in brief: as §2

[13] = pre-emergence, 1,000 g/ha, evaluated after 13 days (100=total damage; 0=no damage), read-out: Percentage damage ALOMY
[14] = pre-emergence, 1,000 g/ha, evaluated after 13 days (100=total damage; 0=no damage), read-out: Percentage damage AMARE
[15] = pre-emergence, 1,000 g/ha, evaluated after 13 days (100=total damage; 0=no damage), read-out: Percentage damage ECHCG
[16] = pre-emergence, 1,000 g/ha, evaluated after 13 days (100=total damage; 0=no damage), read-out: Percentage damage IPOHE
[17] = pre-emergence, 1,000 g/ha, evaluated after 13 days (100=total damage; 0=no damage), read-out: Percentage damage SETFA
[18] = pre-emergence, 1,000 g/ha, evaluated after 13 days (100=total damage; 0=no damage), read-out: Percentage damage SOLNI
[19] = post-emergence, 1,000 g/ha, evaluated after 13 days (100=total damage; 0=no damage), read-out: Percentage damage caused to weed species, ALOMY
[20] = post-emergence, 1,000 g/ha, evaluated after 13 days (100=total damage; 0=no damage), read-out: Percentage damage caused to weed species, AMARE
[21] = post-emergence, 1,000 g/ha, evaluated after 13 days (100=total damage; 0=no damage), read-out: Percentage damage caused to weed species, ECHCG
[22] = post-emergence, 1,000 g/ha, evaluated after 13 days (100=total damage; 0=no damage), read-out: Percentage damage caused to weed species, IPOHE
[23] = post-emergence, 1,000 g/ha, evaluated after 13 days (100=total damage; 0=no damage), read-out: Percentage damage caused to weed species, SETFA
[24] = post-emergence, 1,000 g/ha, evaluated after 13 days (100=total damage; 0=no damage), read-out: Percentage damage caused to weed species, SOLNI
[25] = pre-emergence, rate 1,000 g/ha, evaluated after 13 days (100=total damage to plant; 0=no damage), read-out: Percentage damage caused to weed species, ALOMY
[26] = pre-emergence, rate 1,000 g/ha, evaluated after 13 days (100=total damage to plant; 0=no damage), read-out: Percentage damage caused to weed species, AMARE
[27] = pre-emergence, rate 1,000 g/ha, evaluated after 13 days (100=total damage to plant; 0=no damage), read-out: Percentage damage caused to weed species, ECHCG
[28] = pre-emergence, rate 1,000 g/ha, evaluated after 13 days (100=total damage to plant; 0=no damage), read-out: Percentage damage caused to weed species, IPOHE
[29] = pre-emergence, rate 1,000 g/ha, evaluated after 13 days (100=total damage to plant; 0=no damage), read-out: Percentage damage caused to weed species, SETFA
[30] = pre-emergence, rate 1,000 g/ha, evaluated after 13 days (100=total damage to plant; 0=no damage), read-out: Percentage damage caused to weed species, SOLNI
[31] = Rate 1,000 g/ha, post-emergence spray, evaluated after 13 days (100=total damage to plant; 0=no damage to plant), read-out: Percentage damage caused to weed species, post-emergence, ALOMY
[32] = Rate 1,000 g/ha, post-emergence spray, evaluated after 13 days (100=total damage to plant; 0=no damage to plant), read-out: Percentage damage caused to weed species, post-emergence, AMARE
[33] = Rate 1,000 g/ha, post-emergence spray, evaluated after 13 days (100=total damage to plant; 0=no damage to plant), read-out: Percentage damage caused to weed species, post-emergence, ECHCG
[34] = Rate 1,000 g/ha, post-emergence spray, evaluated after 13 days (100=total damage to plant; 0=no damage to plant), read-out: Percentage damage caused to weed species, post-emergence, IPOHE
[35] = Rate 1,000 g/ha, post-emergence spray, evaluated after 13 days (100=total damage to plant; 0=no damage to plant), read-out: Percentage damage caused to weed species, post-emergence, SETFA
[36] = Rate 1,000 g/ha, post-emergence spray, evaluated after 13 days (100=total damage to plant; 0=no damage to plant), read-out: Percentage damage caused to weed species, post-emergence, SOLNI

SMILES | pest or weed control at 1000 g/ha [1, 13] | pest or weed control at 1000 g/ha [2, 14] | pest or weed control at 1000 g/ha [3, 15] | pest or weed control at 1000 g/ha [4, 16] | pest or weed control at 1000 g/ha (Setaria faberi (SETFA) [5]; [17]) | pest or weed control at 1000 g/ha (Solanum nigrum (SOLNI) [6]; [18]) | pest or weed control at 1000 g/ha [7, 19] | pest or weed control at 1000 g/ha [8, 20] | pest or weed control at 1000 g/ha [9, 21] | pest or weed control at 1000 g/ha [10, 22] | pest or weed control at 1000 g/ha (Setaria faberi (SETFA) [11]; [23]) | pest or weed control at 1000 g/ha (Solanum nigrum (SOLNI) [12]; [24]) | other results
COC(=O)c1nc(C2CC2)nc(NCc2ccc(S(N)(=O)=O)cc2)c1Cl [Compound 4-93, 4-(4-Aminosulphonyl-phenyl)methylamino-5-chloro-2-cyclopropyl-6-methoxycarbonyl-pyrimidine] | 0% | 30% | 0% | 40% | 0% | 0% | 0% | 30% | 0% | 70% | 0% | 50% | –
COC(=O)c1nc(C2CC2)nc(NCc2ccc(Cl)cc2F)c1Cl [Compound 4-101, 5-Chloro-4-(4-chloro-2-fluoro-phenylmethyl-amino)-2-cyclopropyl-6-methoxycarbonyl-pyrimidine] | 10% | 70% | 30% | 70% | 10% | 30% | 30% | 100% | 50% | 100% | 90% | 100% | –
C=CCN(Cc1ccccc1)c1nc(C2CC2)nc(C(=O)OC)c1Cl [Compound 151-60, 5-Chloro-2-cyclopropyl-6-methoxycarbonyl-4-(N-phenylmethyl-N-prop-2-en-1-yl-amino)-pyrimidine] | – | – | – | – | – | – | – | – | – | – | – | – | pest or weed control at 1000 g/ha [1, 25]: 20%; pest or weed control at 1000 g/ha [2, 26]: 40%; pest or weed control at 1000 g/ha [3, 27]: 20%; pest or weed control at 1000 g/ha [4, 28]: 60%; pest or weed control at 1000 g/ha (Setaria faberi (SETFA) [5]; [29]): 10%; pest or weed control at 1000 g/ha (Solanum nigrum (SOLNI) [6]; [30]): 10%; pest or weed control at 1000 g/ha [7, 31]: 20%; pest or weed control at 1000 g/ha [8, 32]: 100%; pest or weed control at 1000 g/ha [9, 33]: 40%; pest or weed control at 1000 g/ha [10, 34]: 70%; pest or weed control at 1000 g/ha (Setaria faberi (SETFA) [11]; [35]): 80%; pest or weed control at 1000 g/ha (Solanum nigrum (SOLNI) [12]; [36]): 80%
COC(=O)c1nc(C2CC2)nc(NC(C)C2CC2)c1Cl (stereo not drawn) [Compound 4-171, 5-Chloro-2-cyclopropyl-4-(1-cyclopropylethyl-amino)-6-methoxy-carbonylpyrimidine] | 30% | 90% | 70% | 100% | 40% | 40% | 40% | 100% | 60% | 90% | 90% | 90% | –
C=CCC(Nc1nc(C2CC2)nc(C(=O)OC)c1Cl)c1ccccn1 (stereo not drawn) [Compound 4-199, 5-Chloro-2-cyclopropyl-6-methoxycarbonyl-4-[1-(pyrid-2-yl)-but-3-enylamino]-pyrimidine] | 0% | 0% | 0% | 40% | 0% | 0% | 0% | 50% | 0% | 80% | 0% | 60% | –
COC(=O)c1nc(C2CC2)nc(NCc2ccc(Cl)cc2)c1Cl [Compound 4-63, 5-Chloro-4-(4-chlorophenylmethyl-amino)-2-cyclopropyl-6-methoxycarbonyl-pyrimidine] | 20% | 60% | 20% | 60% | 20% | 60% | 40% | 100% | 50% | 80% | 80% | 90% | –
COC(=O)c1nc(-c2ccc(Cl)s2)nc(NCc2ccco2)c1Cl [Compound 262-48, 5-Chloro-2-(5-chlorothiophen-2-yl)-4-(furan-2-yl-methylamino)-6-methoxycarbonyl-pyrimidine] | – | – | – | – | – | – | – | – | – | – | – | – | pest or weed control at 1000 g/ha [1, 25]: 0%; pest or weed control at 1000 g/ha [2, 26]: 80%; pest or weed control at 1000 g/ha [3, 27]: 0%; pest or weed control at 1000 g/ha [4, 28]: 0%; pest or weed control at 1000 g/ha (Setaria faberi (SETFA) [5]; [29]): 0%; pest or weed control at 1000 g/ha (Solanum nigrum (SOLNI) [6]; [30]): 20%; pest or weed control at 1000 g/ha [7, 31]: 20%; pest or weed control at 1000 g/ha [8, 32]: 100%; pest or weed control at 1000 g/ha [9, 33]: 20%; pest or weed control at 1000 g/ha [10, 34]: 60%; pest or weed control at 1000 g/ha (Setaria faberi (SETFA) [11]; [35]): 0%; pest or weed control at 1000 g/ha (Solanum nigrum (SOLNI) [12]; [36]): 80%
COC(=O)c1nc(C2CC2)nc(NC(C)c2ccccc2)c1Cl (stereo not drawn) [Compound 4-174, 5-Chloro-2-cyclopropyl-6-methoxycarbonyl-4-(1-phenylethyl-amino)pyrimidine] | 20% | 80% | 30% | 50% | 20% | 70% | 30% | 100% | 90% | 100% | 90% | 90% | –
O=C(O)c1nc(C2CC2)nc(NCc2ccc(F)cc2)c1Cl [Compound 1-66, 5-Chloro-2-cyclopropyl-4-(4-fluorophenylmethyl-amino)pyrimidine-6-carboxylic acid] | 10% | 50% | 10% | 90% | 10% | 60% | 10% | 100% | 50% | 80% | 80% | 90% | –
